Assay results: ChEMBL document CHEMBL1152828, “Rare dipeptide and urea derivatives from roots of Moringa oleifera as potential anti-inflammatory and antinociceptive agents” (Eur J Med Chem, 2009)
Activity calls are given as the source filed them. The calls are words filed in the database; no cut-off is given here.

Columns and labels:
Blood [1] = test: Inhibition of LPS-induced IL2 production in rat whole blood at 12.5 to 50 uM by ELISA; format: functional, tissue-based
Blood [2] = test: Inhibition of LPS-induced IL6 production in rat whole blood at 12.5 to 50 uM by ELISA; format: functional, tissue-based
Blood [3] = test: Inhibition of LPS-induced TNFalpha production in rat whole blood at 12.5 to 50 uM by ELISA; format: functional, tissue-based
Mus musculus = test: Analgesic activity in intracerebrally dosed mouse assessed as increase in time course of latency for thermal stimulation by hotplate test; format: functional, organism-based
[4] = target: Transient receptor potential cation channel subfamily V member 1 (Rattus norvegicus, UniProt O35433); test: Antagonist activity at TRPV1 in rat DRG neuron assessed as inhibition of calcium uptake; format: functional
Transient receptor potential cation channel subfamily V member 1, sequence (O35433 whole entry): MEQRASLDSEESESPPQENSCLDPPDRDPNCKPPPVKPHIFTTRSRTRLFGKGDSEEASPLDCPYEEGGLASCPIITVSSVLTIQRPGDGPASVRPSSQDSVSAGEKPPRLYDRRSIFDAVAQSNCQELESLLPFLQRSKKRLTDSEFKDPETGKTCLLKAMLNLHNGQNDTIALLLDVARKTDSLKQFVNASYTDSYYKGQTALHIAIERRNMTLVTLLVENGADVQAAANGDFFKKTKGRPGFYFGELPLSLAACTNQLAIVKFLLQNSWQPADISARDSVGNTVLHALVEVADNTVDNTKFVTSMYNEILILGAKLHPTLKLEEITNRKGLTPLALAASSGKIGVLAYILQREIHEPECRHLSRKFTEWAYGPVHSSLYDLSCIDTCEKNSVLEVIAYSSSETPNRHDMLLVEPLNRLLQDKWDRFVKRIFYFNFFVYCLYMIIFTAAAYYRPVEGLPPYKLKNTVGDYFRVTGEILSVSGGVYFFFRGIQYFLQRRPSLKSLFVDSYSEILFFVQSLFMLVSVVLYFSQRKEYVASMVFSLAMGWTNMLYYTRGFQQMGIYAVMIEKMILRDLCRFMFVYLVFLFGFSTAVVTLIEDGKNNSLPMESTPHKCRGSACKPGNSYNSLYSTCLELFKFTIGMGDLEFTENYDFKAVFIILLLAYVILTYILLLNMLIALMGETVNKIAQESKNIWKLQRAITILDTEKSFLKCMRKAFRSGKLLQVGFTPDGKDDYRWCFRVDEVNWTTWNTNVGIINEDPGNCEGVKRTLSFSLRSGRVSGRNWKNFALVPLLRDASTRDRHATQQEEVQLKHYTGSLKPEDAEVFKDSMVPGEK

| IC50 [4] [nM] | SMILES | Activity (Blood [1]) | Activity (Blood [2]) | Activity (Blood [3]) | Activity (Mus musculus) |
| --- | --- | --- | --- | --- | --- |
|  | CC(=O)OCC(Cc1ccccc1)NC(=O)C(Cc1ccccc1)NC(=O)c1ccccc1 (configuration not stated) | Active | Active | Active | Dose-dependent effect |
| 10 | O=C(NCc1ccccc1)NCc1ccccc1 | Active |  |  | Dose-dependent effect |
